{
  "source": "patent US20250002486A1",
  "about": "“CYCLIC SULFONAMIDE RIBONUCLEOTIDE REDUCTASE (RNR) INHIBITORS AND USES THEREOF” (Boundless Bio, Inc., priority 2021, published 2025)",
  "key": {"RNR (RNR1:RNR2 1:1)": {"molecular_target": "RNR (RNR1:RNR2 1:1) (Homo sapiens (Human), UniProt P23921)", "sequence (P23921 whole entry)": "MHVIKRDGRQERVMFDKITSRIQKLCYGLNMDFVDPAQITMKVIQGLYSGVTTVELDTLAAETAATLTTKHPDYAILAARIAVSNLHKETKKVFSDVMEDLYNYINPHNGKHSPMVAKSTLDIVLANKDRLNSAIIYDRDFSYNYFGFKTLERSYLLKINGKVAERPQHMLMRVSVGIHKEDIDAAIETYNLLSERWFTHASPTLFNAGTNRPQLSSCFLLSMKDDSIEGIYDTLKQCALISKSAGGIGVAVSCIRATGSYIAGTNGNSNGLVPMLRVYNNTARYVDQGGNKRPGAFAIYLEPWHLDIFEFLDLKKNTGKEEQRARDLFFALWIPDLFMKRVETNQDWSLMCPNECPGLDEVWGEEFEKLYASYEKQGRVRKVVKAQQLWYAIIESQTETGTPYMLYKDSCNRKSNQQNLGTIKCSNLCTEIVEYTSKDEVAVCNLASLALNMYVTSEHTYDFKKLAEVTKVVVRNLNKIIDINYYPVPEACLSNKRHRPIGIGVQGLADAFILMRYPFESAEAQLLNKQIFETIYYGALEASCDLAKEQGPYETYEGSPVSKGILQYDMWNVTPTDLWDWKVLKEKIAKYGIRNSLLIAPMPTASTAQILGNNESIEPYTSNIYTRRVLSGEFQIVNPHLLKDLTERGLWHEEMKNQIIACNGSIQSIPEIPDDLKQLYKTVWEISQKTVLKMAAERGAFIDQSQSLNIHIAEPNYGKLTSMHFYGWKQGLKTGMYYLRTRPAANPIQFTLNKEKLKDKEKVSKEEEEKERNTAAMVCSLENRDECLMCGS", "assay": "RNR enzyme activity, rapid-fire mass spectrometry (RF/MS) assay", "type": "biochemical", "details": "RNR 50 nM, 1:1 RNR1:RNR2; CDP 5 μM, ATP 1 mM; 37° C., 45 min; compounds screened up to 50 μM", "procedure": "A rapid-fire mass spectrometry (RF/MS) assay was used to assess RNR enzyme activity using a 384 well plate and a robotic platform.\nThe plate layout included two validated reference compounds (Triapine (3-AP) and Hydroxyurea (HU)): • A dose response in duplicate; top concentration: 5 μM (3-AP) and 250 μM (HU), semi-log • dilutions. • Spike wells in triplicate randomly spotted at four concentrations: • 250 μM, 100 μM, 30 μM and 2 μM for HU • 5 μM, 2 μM, 0.6 μM and 0.04 μM for 3-AP\nFirst, the multidrop pipes were saturated for 30 minutes with enzymatic solution. Then 30 μL of Stop solution was distributed in column 24. Next, 15 μL of enzyme was distributed in column 1 to 24. Next, a pre-incubation step of 15 minutes at room temperature occurred, followed by distribution of 15 μL of substrate solution (column 1 to 24). Next, the plate was incubated for 45 minutes at 37° C. 30 μL of Stop solution was distributed to columns 1 to 23.\nThe final parameters for the enzyme reactions were: • Incubation: 37° C., 45 min • [CDP]: 5 μM; [ATP]: 1 mM; [NADPH]: No • [RNR]final: 50 nM with 1:1 (RNR1:RNR2) ratio • Final volume: 30 μL • Stop solution: 6% HCOOH containing 2 μM of 15"}, "[1]": {"system": "pCHK1 (S345) in Colo320 DM cells", "assay": "Alphalisa assay: pCHK1 (S345) detection in Colo320 DM cells", "type": "cell-based, human", "details": "compound incubation overnight (approximately 16 hours), pCHK1 (S345) AlphaLisa Sure Fire kit", "procedure": "Colo320 DM cells (ATCC #CCL-220, derived from human colorectal adenocarcinoma, Dukes' type C) were seeded on a 96-well, cell culture treated assay plate at a density of 50,000 cells/well in 200 μL of RPMI-1640 media supplemented with 10% Fetal Bovine Serum and incubated at 37 degrees Celsius overnight. The following day, test compound dilutions were added directly to the plated cells by a Tecan digital dispenser to a final DMSO concentration of <0.5%. and incubated at 37 degrees Celsius overnight (approximately 16 hours). The following day all cull culture media was removed from the cells. 75 μL of 1× AlphaLisa lysis buffer was added to each well and plates were agitated on a shaker for 30 minutes at room temperature. The lysis of cells and detection of pCHK1 (S345) were performed with regents contained within the AlphaLisa Sure Fire assay kit (Perkin Elmer #ALSU-PCHK1-A) according to the manufacturer's instructions. 10 μL of each lysate was then transferred to a white, 384-well assay plate (Perkin Elmer #6008280). 5 μL of Acceptor mix was then added to each well of lysate in the white, 384-well assay plate and incubated in the dark at room temperature for 60 minutes. 5 μL of Donor mix was then added to each well of the white, 384-well assay plate in subdued light and incubated at room temperature for 60 minutes. Plates were read on an Alpha Technology-compatible plate reader using standard AlphaLisa settings."}},
  "data": [
    {"smiles": "Cc1ccc(F)c(C(C)[C@@H](c2n[nH]c(=O)o2)N2C(=O)Cc3cc(Cl)ccc3S2(=O)=O)c1C", "note": "(stereo partly drawn) [Example 17, 5-((1S)-1-(6-chloro-1,1-dioxido-3-oxo-3,4-dihydro-2H-benzo[e] [1,2]thiazin-2-yl)-2-(6-fluoro-2,3-dimethylphenyl)propyl)-1,3,4-oxadiazol-2(3H)-one]", "values": [
      {"measurement": "IC50", "setting": "RNR (RNR1:RNR2 1:1)", "value": "10 to 100", "unit": "µM"},
      {"measurement": "IC50", "setting": "[1]; Homo sapiens, COLO 320DM", "value": "> 50", "unit": "µM"}
    ]},
    {"smiles": "Cc1ccc(F)c(C(C)[C@@H](c2n[nH]c(=O)o2)N2C[C@H](O)[C@H](O)c3cc(Cl)ccc3S2(=O)=O)c1C", "note": "(stereo partly drawn) [Example 26, 5-((1S)-1-((4S, 5R)-7-chloro-4,5-dihydroxy-1,1-dioxido-4,5-dihydrobenzo [f][1,2]thiazepin-2(3H)-yl)-2-(6-fluoro-2,3-dimethylphenyl)propyl)-1,3,4-oxadiazol-2(3H)-one]", "values": [
      {"measurement": "IC50", "setting": "RNR (RNR1:RNR2 1:1)", "value": "≤ 0.1", "unit": "µM"},
      {"measurement": "IC50", "setting": "[1]; Homo sapiens, COLO 320DM", "value": "10 to 50", "unit": "µM"}
    ]},
    {"smiles": "Cc1ccc(F)c([C@H](C)[C@H](c2n[nH]c(=O)o2)N2CCc3cc(Cl)ccc3S2(=O)=O)c1C", "note": "[Example 8, 5-((1R,2S)-1-(6-chloro-1,1-dioxido-3,4-dihydro-2H-benzo[e][1,2]thiazin-2-yl)-2-(6-fluoro-2,3-dimethylphenyl)propyl)-1,3,4-oxadiazol-2(3H)-one]", "values": [
      {"measurement": "IC50", "setting": "RNR (RNR1:RNR2 1:1)", "value": "10 to 100", "unit": "µM"},
      {"measurement": "IC50", "setting": "[1]; Homo sapiens, COLO 320DM", "value": "> 50", "unit": "µM"}
    ]},
    {"smiles": "Cc1ccc(F)c([C@@H](C)[C@@H](c2n[nH]c(=O)o2)N2CCc3cc(Cl)ncc3S2(=O)=O)c1C", "note": "[Example 27, 5-((1S,2R)-1-(6-chloro-1,1-dioxido-3,4-dihydro-2H-pyrido[4,3-e] [1,2]thiazin-2-yl)-2-(6-fluoro-2,3-dimethylphenyl)propyl)-1,3,4-oxadiazol-2(3H)-one]", "values": [
      {"measurement": "IC50", "setting": "RNR (RNR1:RNR2 1:1)", "value": "0.1 to 1", "unit": "µM"},
      {"measurement": "IC50", "setting": "[1]; Homo sapiens, COLO 320DM", "value": "> 50", "unit": "µM"}
    ]},
    {"smiles": "Cc1ccc(F)c([C@@H](C)[C@@H](c2n[nH]c(=O)o2)N2CCc3ccc(Cl)cc3S2(=O)=O)c1C", "note": "[Example 11, 5-((1S,2R)-1-(7-chloro-1,1-dioxido-3,4-dihydro-2H-benzo[e][1,2]thiazin-2-yl)-2-(6-fluoro-2,3-dimethylphenyl)propyl)-1,3,4-oxadiazol-2(3H)-one]", "values": [
      {"measurement": "IC50", "setting": "RNR (RNR1:RNR2 1:1)", "value": "0.1 to 1", "unit": "µM"},
      {"measurement": "IC50", "setting": "[1]; Homo sapiens, COLO 320DM", "value": "> 50", "unit": "µM"}
    ]},
    {"smiles": "Cc1ccc(F)c([C@@H](C)[C@@H](c2n[nH]c(=O)o2)N2CC(F)(F)c3cc(Cl)ccc3S2(=O)=O)c1C", "note": "[Example 22, 5-((1S,2R)-1-(6-chloro-4,4-difluoro-1,1-dioxido-3,4-dihydro-2H-benzo[e][1,2]thiazin-2-yl)-2-(6-fluoro-2,3-dimethylphenyl)propyl)-1,3,4-oxadiazol-2(3H)-one]", "values": [
      {"measurement": "IC50", "setting": "RNR (RNR1:RNR2 1:1)", "value": "0.1 to 1", "unit": "µM"},
      {"measurement": "IC50", "setting": "[1]; Homo sapiens, COLO 320DM", "value": "5 to 10", "unit": "µM"}
    ]},
    {"smiles": "COc1cc(Cl)cc2c1S(=O)(=O)N([C@@H](c1n[nH]c(=O)o1)[C@@H](C)c1c(F)ccc(C)c1C)C2=O", "note": "(stereo in doubt) [Example 3, 5-((1R,2S)-1-(5-chloro-7-methoxy-1,1-dioxido-3-oxobenzo[d]isothiazol-2(3H)-yl)-2-(6-fluoro-2,3-dimethylphenyl)propyl)-1,3,4-oxadiazol-2(3H)-one]", "values": [
      {"measurement": "IC50", "setting": "RNR (RNR1:RNR2 1:1)", "value": "10 to 100", "unit": "µM"},
      {"measurement": "IC50", "setting": "[1]", "value": "> 50", "unit": "µM"}
    ]},
    {"smiles": "COc1cc(Cl)cc2c1S(=O)(=O)N([C@H](c1n[nH]c(=O)o1)[C@H](C)c1c(F)ccc(C)c1C)C2", "note": "[Example 6, 5-((1S,2R)-1-(5-chloro-7-methoxy-1,1-dioxidobenzo [d]isothiazol-2(3H)-yl)-2-(6-fluoro-2,3-dimethylphenyl)propyl)-1,3,4-oxadiazol-2(3H)-one]", "values": [
      {"measurement": "IC50", "setting": "RNR (RNR1:RNR2 1:1)", "value": "1 to 10", "unit": "µM"},
      {"measurement": "IC50", "setting": "[1]; Homo sapiens, COLO 320DM", "value": "> 50", "unit": "µM"}
    ]},
    {"smiles": "Cc1ccc(F)c([C@@H](C)[C@@H](c2n[nH]c(=O)o2)N2CC(O)c3cc(Cl)ccc3S2(=O)=O)c1C", "note": "(stereo partly drawn) [Example 19, 5-((1S,2R)-1-(6-chloro-4-hydroxy-1,1-dioxido-3,4-dihydro-2H-benzo[e][1,2]thiazin-2-yl)-2-(6-fluoro-2,3-dimethylphenyl)propyl)-1,3,4-oxadiazol-2(3H)-one]", "values": [
      {"measurement": "IC50", "setting": "RNR (RNR1:RNR2 1:1)", "value": "0.1 to 1", "unit": "µM"},
      {"measurement": "IC50", "setting": "[1]; Homo sapiens, COLO 320DM", "value": "10 to 50", "unit": "µM"}
    ]},
    {"smiles": "Cc1ccc(F)c([C@H](C)[C@@H](c2n[nH]c(=O)o2)N2C(=O)c3cc(Cl)ccc3S2(=O)=O)c1C", "note": "[Example 2, 5-((1S,2S)-1-(5-chloro-1,1-dioxido-3-oxobenzo[d]isothiazol-2(3H)-yl)-2-(6-fluoro-2,3-dimethylphenyl)propyl)-1,3,4-oxadiazol-2(3H)-one]", "values": [
      {"measurement": "IC50", "setting": "RNR (RNR1:RNR2 1:1)", "value": "1 to 10", "unit": "µM"},
      {"measurement": "IC50", "setting": "[1]; Homo sapiens, COLO 320DM", "value": "> 50", "unit": "µM"}
    ]}
  ]
}
